# In PMC12564946, “A Stable Delivery System for Meretrix meretrix Derived Immunomodulatory Peptide (QLNWD): Fabrication and Characterization of Glycosylated Protein Nanoparticle” (Marine Drugs, 2025):
# Ends that are not written are not given here.
# Assay: In vitro release of QLNWD, dialysis bag method in enzyme-free SGF/SIF
# Type: in vitro ADME
# Conditions: 37 °C, 120 rpm
# Procedure: The release profile of QLNWD in NPs was evaluated according to a published dialysis method. A 2 mL aliquot of QLNWD (1 mg/mL) nanoparticle solution was introduced into a presoaked dialysis bag (molecular weight cutoff of 3500 Da). The bag was immersed in 20 mL of simulated gastric fluid (SGF, enzyme-free), which had been preheated at 37 °C for 30 min and adjusted to pH 2. The entire system was incubated at 37 °C under continuous agitation at 120 rpm. After 2 h, the pH was adjusted to 7.0, and 20 mL of simulated intestinal fluid (SIF, enzyme-free), also preheated at 37 °C for 30 min and adjusted to pH 7.0, was added to the system. At predetermined intervals, 1 mL of the release medium was sampled and immediately replenished with an equal volume of fresh SGF/SIF. Samples without QLNWD served as the blank control, and the cumulative release was determined as follows:(2) Cumulative release (%)=(V0Cn+Ve∑1n−1Cn−1)/total QLNWD content×100 where V0 refers to the total volume of simulated gastric or intestinal fluid, Cn refers to the concentration of QLNWD at the nth time, and Ve refers to the volume of each sample.
substance,measurement,setting,value
"QLNWD [QLNWD, Gln-Leu-Asn-Trp-Asp]",Cumulative release of QLNWD,"12 h: 2 h enzyme-free SGF pH 2, then enzyme-free SIF pH 7.0, dialysis bag 3500 Da",79.1%
same,Cumulative release of QLNWD,"initial 2 h in enzyme-free SGF pH 2, dialysis bag 3500 Da, QLNWD 1 mg/mL",38.1%
